Assays:
[1] = target: T1, human 20S proteasome, ChT-L peptidase; assay: Chymotrypsin-like (ChT-L) activity of h20S probed with Suc-LLVY-AMC; format: biochemical
T1 construct: human proteasome isolated from erythrocytes; from tissue; host or cells: human erythrocytes
Experimental: (§1) To assess the influence of substitutions increasing proteolytic stability on the modulators’ capacity to stimulate chymotrypsin-like, trypsin-like, and caspase-like activity of h20S, we used classic fluorogenic substrates: Suc-LLVY-AMC, Boc-LRR-AMC, and Z-LLE-AMC, respectively.
(§2) The effect of all synthesized peptidomimetics on the catalytic activity of the proteasome was tested using a human proteasome isolated from erythrocytes. Suc-LLVY-AMC, Boc-LRR-AMC, and Z-LLE-AMC fluorogenic substrates (Bachem, Bubendorf, Switzerland) were used for assessment of the chymotrypsin-, trypsin-, and caspase-like activities, respectively. A homemade FRET-type substrate Dabcyl-EDANS (Lys(Dabcyl)-[…]EDANS)-Gly)[26] was used as an additional probe. Stock solutions of the substrates and tested peptidomimetics were prepared in dimethyl sulfoxide (DMSO), ensuring that the final concentration of DMSO in all samples remained consistent at 2%. The small fluorogenic substrates were used at a final concentration of 100 μM, while Dabcyl-EDANS was prepared at a final concentration of 15 μM. […] Activity tests were conducted in 96-well plates using 50 mM Tris/HCl, pH 8.0, as an assay buffer. The final concentration of h20S proteasome was adjusted to 0.002 mg/mL (2.8 nM). The fluorescence of released aminomethylcoumarin (AMC) was monitored at 460 nm (λex was 380 nm), while the hydrolysis of Dabcyl-EDANS was detected by measuring emission at 493 nm (λex was set at 335 nm). Fluorescence measurements were taken continuously every 2 min over a 60 min period at 37 °C using a Tecan Infinite M200Pro spectrofluorometer (Tecan Trading AG, Männedorf, Switzerland). All activity assays were performed in at least three independent replicates. The relative activity was calculated in relation to the catalytic activity of the vehicle (DMSO)-treated latent proteasome, which was regarded as 100%. Statistical analysis was performed using the one-way ANOVA followed by Tukey’s post-hoc test. P-value <0.05 was considered statistically significant.

[2] = PAMPA, blood–brain barrier mimic; format: in vitro ADME; details: 500 μM, 37 °C, 22 h
From the text: In neurodegenerative diseases, proteins prone to aggregation accumulate in the neuronal cells. Therefore, a necessary feature of potential drugs is not only permeability across the cell membrane but also the ability to cross the blood-brain barrier (BBB). To preliminarily investigate this feature, we performed parallel artificial membrane permeation assays (PAMPA) including as positive controls propranolol and Tat47-57, known for their ability to penetrate the blood-brain barrier. Dopamine hydrobromide was included as a negative control. For comparison, we also tested compound 1a, which is devoid of a CPP sequence. […] The PAMPA was performed as previously described.[21] Briefly, a 2% solution of porcine brain lipid membrane (PBL; Avanti Polar Lipids Inc., Alabaster, AL, USA) in anhydrous dodecane was used as a mimic of the blood-brain barrier. Propranolol hydrochloride (Merck, Darmstadt, Germany) and Tat47-57 (synthesized in-house) served as positive controls, while dopamine hydrobromide (Merck, Darmstadt, Germany) was used as a negative control. Stock solutions of the tested compounds and controls were prepared at a concentration of 10 mM in deionized water and then diluted to 500 μM using 0.1 M PBS containing 5% DMSO. The donor-acceptor plate assembly was incubated at 37 °C while being shaken at 250 rpm for 22 h. Absorbance at 290 nm was measured for propranolol using an Infinite […] plate reader (Infinite […] plate reader, Tecan). For the other samples, fluorescence measurements were performed after the compounds were reacted with 0.02% fluorescamine. The rate of passive diffusion was calculated as the linear velocity of permeation (Pe). The data represent an average of three independent biological replicates.

[3] = tested on: human 20S proteasome (Tau-441 substrate); assay: Tau-441 degradation by h20S (SDS-PAGE); format: biochemical; details: 10 μM modulator, 37 °C, 1.5 h
Experimental: The effectiveness of the compounds has also been examined by using proteins as substrates. By means of SDS-PAGE electrophoresis, we checked the extent to which model proteins were digested by the 20S proteasome alone and after its stimulation by 10 μM modulators. […] After incubation with the enzyme in the presence of each modulator, less than 40% of synuclein remained. […] The experiment was performed as it was described.[36] Briefly, α-synuclein (rPeptide, […], USA) and Tau-441 (Novus Biologicals, Centennial, CO, USA) were dissolved in 20 mM HEPES buffer (pH 7.4) and mixed with a human 20S proteasome. Samples were incubated at 37 °C for 1.5 h, after which the reaction was terminated by adding 4× Laemmli buffer. The levels of undigested proteins were evaluated by SDS-PAGE. The band intensities of proteins incubated with […] in the presence of a modulator were compared to those of proteins incubated with the enzyme alone, which were set as 100%. Three independent experiments were performed for each protein. The results are presented as the means ± SD. One-way ANOVA with Tukey's post-hoc test was used to determine statistical significance.

[4] = tested on: T2, human 20S proteasome, T-L peptidase; assay: Trypsin-like (T-L) activity of h20S probed with Boc-LRR-AMC; format: biochemical; details: 100 μM Boc-LRR-AMC
T2 construct: human proteasome isolated from erythrocytes; from tissue; host or cells: human erythrocytes
Experimental: as §1, §2

C[C@@H](O)[C@H](NC(=O)[C@H](Cc1ccccc1)NC(=O)[C@H](Cc1ccc(O)cc1)NC(=O)CN(CCCCN)C(=O)[C@H](CCCNC(=N)N)NC(=O)[C@H](CCCNC(=N)N)NC(=O)[C@H](CCCNC(=N)N)NC(=O)[C@H](CCC(N)=O)NC(=O)[C@H](CCCNC(=N)N)NC(=O)[C@H](CCCNC(=N)N)NC(=O)[C@H](CCCCN)NC(=O)[C@H](CCCCN)NC(=O)[C@@H](N)CCCNC(=N)N)C(=O)NCC(=O)N[C@@H](CO)C(=O)N[C@@H](CCCCN)C(=O)N[C@@H](CC(=O)O)C(=O)N[C@@H](Cc1c[nH]c2ccccc12)C(=O)N[C@@H](CCCNC(=N)N)C(=O)N[C@@H](CO)C(=O)N[C@@H](Cc1ccc(O)cc1)C(=O)N[C@@H](Cc1ccc(O)cc1)C(=O)N[C@@H](CO)C(=O)O [1f]
EC50 ([1]; Suc-LLVY-AMC, n = 6, EC50 = concentration causing 50% growth of activity vs vehicle control): 540 ± 100 nM | stimulation of proteasome activity ([1]; as summed up in Conclusions, substrate not named there): approximately 17 times | stimulation of the ChT-L peptidase ([1]; at 1 μM concentration, Suc-LLVY-AMC): approximately 16 fold | permeability across artificial BBB membrane, PAMPA [2]: had the ability to penetrate the artificial membrane mimicking the BBB | Tau protein digested by h20S [3]: more than 90% | T-L stimulating capacity, Boc-LRR-AMC [4]: activated the T-L less and less with an increasing concentration
